According to ChEMBL document CHEMBL1201862, “PubChem BioAssay data set” (2004):
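Each compound was tested at five concentrations against cells in 96-well plates for 48 hours. Here, GI50 denotes the concentration required for 50% inhibition of growth.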 Calls of active or inactive are those of the source. Cut-off read from the data, not from the text of the source: active = GI50 up to about 1.1 µM and inactive = higher.

Columns and labels:
Assay in all cases: DTP human tumour cell line panel, 48 h
[1] = test system: OVCAR-4
[2] = test system: CAKI-1
[3] = test system: NCI/ADR-RES
[4] = test system: SK-MEL-28
[5] = test system: SN12C
[6] = test system: K562
[7] = test system: HT-29
[8] = test system: COLO 205
[9] = test system: EKVX
[10] = test system: MCF7
[11] = test system: SF-268
[12] = test system: PC-3
[13] = test system: HOP-92
[14] = test system: KM12
[15] = test system: IGROV-1
[16] = test system: MDA-MB-231
[17] = test system: SNB-19
[18] = test system: T47D
[19] = test system: HL-60

| Structure (SMILES) | GI50 [1] | GI50 [2] | GI50 [3] | GI50 [4] | GI50 [5] | GI50 [6] | GI50 [7] | GI50 [8] | GI50 [9] | GI50 [10] | GI50 [11] | GI50 [12] | GI50 [13] | GI50 [14] | GI50 [15] | GI50 [16] | GI50 [17] | GI50 [18] | GI50 [19] |
| --- | --- | --- | --- | --- | --- | --- | --- | --- | --- | --- | --- | --- | --- | --- | --- | --- | --- | --- | --- |
| COc1ccc(OC)c2c(C)ccnc12 | 9.77 µM (inactive) | 28.9 µM (inactive) | 12.9 µM (inactive) | 36.6 µM (inactive) | 22.1 µM (inactive) | > 37.7 µM (inactive) | 17.1 µM (inactive) | 39.5 µM (inactive) | 14.3 µM (inactive) | 9.04 µM (inactive) | 9.89 µM (inactive) | 20.3 µM (inactive) | 18.6 µM (inactive) | 37.2 µM (inactive) | 10.7 µM (inactive) | 34 µM (inactive) | 19.9 µM (inactive) | 22.5 µM (inactive) | – |
| CCOC(=O)c1nnc2c(C(=O)OCC)c3ccccc3n2c1N | 5.2 µM (inactive) | 7.48 µM (inactive) | 3.61 µM (inactive) | 5.85 µM (inactive) | 6.67 µM (inactive) | 11.2 µM (inactive) | 22.8 µM (inactive) | 10.2 µM (inactive) | 25.8 µM (inactive) | 13.1 µM (inactive) | 19.3 µM (inactive) | 5.35 µM (inactive) | – | 4.43 µM (inactive) | 1.12 µM (active) | 19.8 µM (inactive) | 4.93 µM (inactive) | 29.9 µM (inactive) | 2.15 µM (inactive) |
| CC(=O)OCC1OC(Sc2nc(-c3ccccc3)c(C#N)c(=O)n2C2OC(COC(C)=O)C(OC(C)=O)C(OC(C)=O)C2OC(C)=O)C(OC(C)=O)C(OC(C)=O)C1OC(C)=O (centres undefined) | – | > 100 µM (inactive) | > 100 µM (inactive) | > 100 µM (inactive) | > 100 µM (inactive) | 32.2 µM (inactive) | > 100 µM (inactive) | > 100 µM (inactive) | > 100 µM (inactive) | > 100 µM (inactive) | > 100 µM (inactive) | > 100 µM (inactive) | > 100 µM (inactive) | > 100 µM (inactive) | > 100 µM (inactive) | > 100 µM (inactive) | – | > 100 µM (inactive) | – |
| CC(=O)c1c(CO[N+](=O)[O-])[n+]([O-])c2ccccc2[n+]1[O-] | > 100 µM (inactive) | > 100 µM (inactive) | > 100 µM (inactive) | 72.1 µM (inactive) | 64.1 µM (inactive) | > 100 µM (inactive) | > 100 µM (inactive) | 61 µM (inactive) | > 100 µM (inactive) | 74.3 µM (inactive) | > 100 µM (inactive) | > 100 µM (inactive) | > 100 µM (inactive) | – | 41.5 µM (inactive) | 53.7 µM (inactive) | > 100 µM (inactive) | 61.4 µM (inactive) | – |
| C[C@]12CC[C@H]3[C@@H](CCC4=CC(=O)CC[C@@]43C)[C@@H]1CC[C@@H]2OC(=O)c1cccc2c(=O)c3ccccc3[nH]c12 | 54.7 µM (inactive) | – | 64 µM (inactive) | > 100 µM (inactive) | > 100 µM (inactive) | 16.3 µM (inactive) | 43.8 µM (inactive) | > 100 µM (inactive) | 7.57 µM (inactive) | > 100 µM (inactive) | 18.2 µM (inactive) | 44.4 µM (inactive) | 84.5 µM (inactive) | 37.2 µM (inactive) | > 100 µM (inactive) | > 100 µM (inactive) | > 100 µM (inactive) | 57.3 µM (inactive) | – |
| COc1cc(/C=C/C(=O)OCCc2ccccc2)ccc1O | 13 µM (inactive) | 15.9 µM (inactive) | 23.7 µM (inactive) | 13.9 µM (inactive) | 19.8 µM (inactive) | 20.1 µM (inactive) | 21.3 µM (inactive) | 19.4 µM (inactive) | 16.3 µM (inactive) | 20.8 µM (inactive) | 20.5 µM (inactive) | 14.2 µM (inactive) | – | 14.6 µM (inactive) | 14.1 µM (inactive) | 14.2 µM (inactive) | 17.9 µM (inactive) | 13.5 µM (inactive) | 0.352 µM (active) |
